In ChEMBL document CHEMBL3885881, “DrugMatrix”:

Organism: Rattus norvegicus
Assay: DrugMatrix - Regimen: Daily Repeat
Type: toxicity, organism-based, Sprague-Dawley
Set-up: regimen Daily Repeat, gender Male, age 6-8 weeks
Conditions: in vivo, po, route oral GAVAGE, vehicle .5 % CMC; for BASOPHIL / EOSINOPHIL / ERYTHROCYTE COUNT / HEMATOCRIT / HEMOGLOBIN / LEUKOCYTE COUNT / LYMPHOCYTE / MEAN CORPUSCULAR HEMOGLOBIN / MEAN CORPUSCULAR HEMOGLOBIN CONCENTRATION / MEAN CORPUSCULAR VOLUME / MONOCYTE / NEUTROPHIL / PLATELET COUNT: tissue Blood; for ALANINE AMINOTRANSFERASE / ALBUMIN / ALKALINE PHOSPHATASE / ASPARTATE AMINOTRANSFERASE / BLOOD UREA NITROGEN / CHLORIDE / CHOLESTEROL / CREATINE PHOSPHOKINASE / CREATININE / GLUCOSE / PHOSPHORUS / POTASSIUM / SODIUM / TOTAL BILIRUBIN / TOTAL PROTEIN: tissue Plasma
[1] = 0 mg/kg, 72 h, dose level Control, time 3 day
[2] = 0 mg/kg, 120 h, dose level Control, time 5 day
[3] = 120 mg/kg, 72 h, dose level Low, time 3 day
[4] = 120 mg/kg, 120 h, dose level Low, time 5 day
[5] = 1500 mg/kg, 72 h, dose level High, time 3 day
[6] = 1500 mg/kg, 120 h, dose level High, time 5 day

CC1CC(OC(=O)C(O)c2ccccc2)CC(C)(C)C1 (stereo not drawn) [CYCLANDELATE]
BASOPHIL [1]: 0%
EOSINOPHIL [1]: 0%
ERYTHROCYTE COUNT [1]: 6.34 x10E6/uL
HEMATOCRIT [1]: 37.62%
HEMOGLOBIN [1]: 14.82 G/DL
LEUKOCYTE COUNT [1]: 11.18 x10E3/uL
LYMPHOCYTE [1]: 87.5%
MEAN CORPUSCULAR HEMOGLOBIN [1]: 23.48 pg
MEAN CORPUSCULAR HEMOGLOBIN CONCENTRATION [1]: 39.5 G/DL
MEAN CORPUSCULAR VOLUME [1]: 59.45 fL
MONOCYTE [1]: 1.67%
NEUTROPHIL [1]: 10.83%
PLATELET COUNT [1]: 1074.83 x10E3/uL
ALANINE AMINOTRANSFERASE [1]: 36.5 u/L
ALBUMIN [1]: 3.9 G/DL
ALKALINE PHOSPHATASE [1]: 370.17 u/L
ASPARTATE AMINOTRANSFERASE [1]: 63.17 u/L
BLOOD UREA NITROGEN [1]: 16.83 mg/dL
CHLORIDE [1]: 99.33 MEQ/L
CHOLESTEROL [1]: 64.33 mg/dL
CREATINE PHOSPHOKINASE [1]: 127 u/L
CREATININE [1]: 0.55 mg/dL
GLUCOSE [1]: 173.5 mg/dL
PHOSPHORUS [1]: 10.08 mg/dL
POTASSIUM [1]: 6.23 MEQ/L
SODIUM [1]: 143.5 MEQ/L
TOTAL BILIRUBIN [1]: 0.52 mg/dL
TOTAL PROTEIN [1]: 6.35 G/DL
BASOPHIL [2]: 0%
EOSINOPHIL [2]: 0.17%
ERYTHROCYTE COUNT [2]: 6.12 x10E6/uL
HEMATOCRIT [2]: 37.08%
HEMOGLOBIN [2]: 14.82 G/DL
LEUKOCYTE COUNT [2]: 11.87 x10E3/uL
LYMPHOCYTE [2]: 83.33%
MEAN CORPUSCULAR HEMOGLOBIN [2]: 24.25 pg
MEAN CORPUSCULAR HEMOGLOBIN CONCENTRATION [2]: 39.97 G/DL
MEAN CORPUSCULAR VOLUME [2]: 60.65 fL
MONOCYTE [2]: 1.5%
NEUTROPHIL [2]: 15%
PLATELET COUNT [2]: 1042.83 x10E3/uL
ALANINE AMINOTRANSFERASE [2]: 46 u/L
ALBUMIN [2]: 3.82 G/DL
ALKALINE PHOSPHATASE [2]: 369.5 u/L
ASPARTATE AMINOTRANSFERASE [2]: 65 u/L
BLOOD UREA NITROGEN [2]: 16.33 mg/dL
CHLORIDE [2]: 100.67 MEQ/L
CHOLESTEROL [2]: 57.17 mg/dL
CREATINE PHOSPHOKINASE [2]: 130 u/L
CREATININE [2]: 0.53 mg/dL
GLUCOSE [2]: 163.33 mg/dL
PHOSPHORUS [2]: 9.53 mg/dL
POTASSIUM [2]: 6.27 MEQ/L
SODIUM [2]: 144.83 MEQ/L
TOTAL BILIRUBIN [2]: 0.55 mg/dL
TOTAL PROTEIN [2]: 6.32 G/DL
BASOPHIL [3]: 0%
EOSINOPHIL [3]: 0.67%
ERYTHROCYTE COUNT [3]: 6.2 x10E6/uL
HEMATOCRIT [3]: 37.27%
HEMOGLOBIN [3]: 14.57 G/DL
LEUKOCYTE COUNT [3]: 11.3 x10E3/uL
LYMPHOCYTE [3]: 86.33%
MEAN CORPUSCULAR HEMOGLOBIN [3]: 23.5 pg
MEAN CORPUSCULAR HEMOGLOBIN CONCENTRATION [3]: 39.1 G/DL
MEAN CORPUSCULAR VOLUME [3]: 60.1 fL
MONOCYTE [3]: 1.33%
NEUTROPHIL [3]: 11.67%
PLATELET COUNT [3]: 1168 x10E3/uL
ALANINE AMINOTRANSFERASE [3]: 38.33 u/L
ALBUMIN [3]: 3.93 G/DL
ALKALINE PHOSPHATASE [3]: 369.67 u/L
ASPARTATE AMINOTRANSFERASE [3]: 55.67 u/L
BLOOD UREA NITROGEN [3]: 14 mg/dL
CHLORIDE [3]: 99 MEQ/L
CHOLESTEROL [3]: 67.67 mg/dL
CREATINE PHOSPHOKINASE [3]: 114.33 u/L
CREATININE [3]: 0.53 mg/dL
GLUCOSE [3]: 156 mg/dL
PHOSPHORUS [3]: 10.37 mg/dL
POTASSIUM [3]: 6.13 MEQ/L
SODIUM [3]: 144.67 MEQ/L
TOTAL BILIRUBIN [3]: 0.37 mg/dL
TOTAL PROTEIN [3]: 6.33 G/DL
BASOPHIL [4]: 0%
EOSINOPHIL [4]: 0%
ERYTHROCYTE COUNT [4]: 5.8 x10E6/uL
HEMATOCRIT [4]: 35%
HEMOGLOBIN [4]: 14.13 G/DL
LEUKOCYTE COUNT [4]: 12.1 x10E3/uL
LYMPHOCYTE [4]: 90.33%
MEAN CORPUSCULAR HEMOGLOBIN [4]: 24.37 pg
MEAN CORPUSCULAR HEMOGLOBIN CONCENTRATION [4]: 40.4 G/DL
MEAN CORPUSCULAR VOLUME [4]: 60.3 fL
MONOCYTE [4]: 0.67%
NEUTROPHIL [4]: 9%
PLATELET COUNT [4]: 1005.67 x10E3/uL
ALANINE AMINOTRANSFERASE [4]: 37 u/L
ALBUMIN [4]: 3.63 G/DL
ALKALINE PHOSPHATASE [4]: 308.67 u/L
ASPARTATE AMINOTRANSFERASE [4]: 59 u/L
BLOOD UREA NITROGEN [4]: 13.33 mg/dL
CHLORIDE [4]: 99.67 MEQ/L
CHOLESTEROL [4]: 64 mg/dL
CREATINE PHOSPHOKINASE [4]: 121.33 u/L
CREATININE [4]: 0.53 mg/dL
GLUCOSE [4]: 159 mg/dL
PHOSPHORUS [4]: 10.83 mg/dL
POTASSIUM [4]: 6.27 MEQ/L
SODIUM [4]: 145.33 MEQ/L
TOTAL BILIRUBIN [4]: 0.37 mg/dL
TOTAL PROTEIN [4]: 5.93 G/DL
BASOPHIL [5]: 0%
EOSINOPHIL [5]: 0%
ERYTHROCYTE COUNT [5]: 5.97 x10E6/uL
HEMATOCRIT [5]: 37.13%
HEMOGLOBIN [5]: 14.77 G/DL
LEUKOCYTE COUNT [5]: 13.43 x10E3/uL
LYMPHOCYTE [5]: 84.67%
MEAN CORPUSCULAR HEMOGLOBIN [5]: 24.83 pg
MEAN CORPUSCULAR HEMOGLOBIN CONCENTRATION [5]: 39.77 G/DL
MEAN CORPUSCULAR VOLUME [5]: 62.27 fL
MONOCYTE [5]: 0.33%
NEUTROPHIL [5]: 15%
PLATELET COUNT [5]: 1199 x10E3/uL
ALANINE AMINOTRANSFERASE [5]: 42.67 u/L
ALBUMIN [5]: 3.77 G/DL
ALKALINE PHOSPHATASE [5]: 377.33 u/L
ASPARTATE AMINOTRANSFERASE [5]: 59.67 u/L
BLOOD UREA NITROGEN [5]: 13.67 mg/dL
CHLORIDE [5]: 98.33 MEQ/L
CHOLESTEROL [5]: 67.67 mg/dL
CREATINE PHOSPHOKINASE [5]: 127.67 u/L
CREATININE [5]: 0.57 mg/dL
GLUCOSE [5]: 161.67 mg/dL
PHOSPHORUS [5]: 11.5 mg/dL
POTASSIUM [5]: 6.17 MEQ/L
SODIUM [5]: 143.33 MEQ/L
TOTAL BILIRUBIN [5]: 0.57 mg/dL
TOTAL PROTEIN [5]: 6.03 G/DL
BASOPHIL [6]: 0%
EOSINOPHIL [6]: 0.5%
ERYTHROCYTE COUNT [6]: 5.77 x10E6/uL
HEMATOCRIT [6]: 35.95%
HEMOGLOBIN [6]: 14.35 G/DL
LEUKOCYTE COUNT [6]: 10.4 x10E3/uL
LYMPHOCYTE [6]: 91.5%
MEAN CORPUSCULAR HEMOGLOBIN [6]: 24.9 pg
MEAN CORPUSCULAR HEMOGLOBIN CONCENTRATION [6]: 39.9 G/DL
MEAN CORPUSCULAR VOLUME [6]: 62.4 fL
MONOCYTE [6]: 0%
NEUTROPHIL [6]: 8%
PLATELET COUNT [6]: 1077.5 x10E3/uL
ALANINE AMINOTRANSFERASE [6]: 34.67 u/L
ALBUMIN [6]: 3.77 G/DL
ALKALINE PHOSPHATASE [6]: 393 u/L
ASPARTATE AMINOTRANSFERASE [6]: 55.67 u/L
BLOOD UREA NITROGEN [6]: 14.33 mg/dL
CHLORIDE [6]: 100 MEQ/L
CHOLESTEROL [6]: 87 mg/dL
CREATINE PHOSPHOKINASE [6]: 123.67 u/L
CREATININE [6]: 0.57 mg/dL
GLUCOSE [6]: 158 mg/dL
PHOSPHORUS [6]: 11.47 mg/dL
POTASSIUM [6]: 6.4 MEQ/L
SODIUM [6]: 144.33 MEQ/L
TOTAL BILIRUBIN [6]: 0.37 mg/dL
TOTAL PROTEIN [6]: 6.17 G/DL
